Each block holds one molecule with its values, some of them ahead of it.
What was measured:
Siglec-7v with azido-GD3 = molecular target: T1, Siglec-7v with azido-GD3 (Homo sapiens, UniProt Q9Y286, C41S); assay: Small molecule mediated Siglec-7v cross-linking in vitro (Western blot); format: biochemical; details: for cross-linking of Siglec-7v with azido-GD3 (biotin band slightly above Siglec-7v): 60 μM Siglec-7v, 2 mM azido-GD3, 0.3 mM cross-linker, room temperature, UV for NHQM, HoQM
T1 construct: made in house; host or cells: E. coli BL21(DE3)
Description: We then investigated if the various function groups synthesized onto the cross-linkers (FIG. 1B) could achieve protein-glycan cross-linking using Siglec-7v and azido-GD3 as the model system. Siglec-7v (60 μM) was incubated with 2 mM azido-GD3 for 1 h at room temperature, followed by the addition of different cross-linkers to the solution. For samples treated with cross-linker NHQM or HoQM, UV light was applied to activate the cross-linker. Alkyne-biotin was subsequently clicked with azido-GD3 in the samples, and the biotin signal was detected with Western blot using streptavidin-HRP (FIG. 1E). […] (Ref. 20). The results here indicate that NHSF can be applied to cross-link protein-glycan interactions via the sulfonyl fluoride group.
To test if small molecule cross-linker could cross-link Siglec-7v with azido-GD3 and azido-lac, 60 μM Siglec-7v was incubated with 2 mM azido-GD3 or azido-lac in PBS buffer, pH 7.4 at room temperature for 1 hr. The solution was treated with or without 0.3 mM NHSF or NHBr or NHFS or NHQM or HoQM at room temperature for 1 hr, respectively. The NHQM or HoQM was then illuminated with or without UV for 15 mins at wavelength 365 nm. After that, 200 μM alkyne-biotin, 0.05 mM CuSO4, 1 mM THPTA and 1 mM sodium ascorbate were added and the reaction mixture was incubated at room temperature in dark environment for 0.5 hours. Samples were then boiled at 95° C. for 5 mins and run Western blot against 6× His tag antibody or streptavidin-horseradish peroxidase (HRP).

[1] = Cross-linking of azido-GD3 by SFY incorporated Siglec-7v in vitro (Western blot); format: biochemical; details: 60 μM Siglec-7v(127SFY), 2 mM azido-GD3
Description: FIGS. 17A-17D provide a comparative study between NHSF pretreated Siglec-7v (Siglec-7v-SF) and Siglec-7v(127SFY). […] Siglec-7v(127SFY) or Siglec-7v-SF was incubated with azido-GD3 or azido-lac followed with Western blot detection. The azido group was click reacted with alkyne-biotin for Western blot detection of GD3/lac. […] Cells were treated with protein, washed, stained with a fluorescently labeled antibody specific for the His×6 tag appended at the C-terminus of Siglec-7v, and quantified with flow cytometry. […] Pre-stained BT-20 cells were incubated with 12 μM Siglec-7v-SF or Siglec-7v(127SFY) for 2 h. Cells were then washed and incubated with NK-92 cells for 4 h. Cells were stained with propidium iodide and NK cytotoxicity was evaluated by flow cytometry. Control group: no protein treatment. The line and error bar represent mean±SEM; n=3 independent batches of Siglec-7v proteins. *** p<0.001; NS, not significant, multiple t test.
We then determined if SFY could enable Siglec-7v to cross-link the bound glycan ligand. Inspired by NHSF-mediated cross-linking of azido-GD3 through Lys on Siglec-7v protein, we incorporated SFY into individual Lys sites of Siglec-7v, including sites 20, 24, 75, 104, 127, 131, and 135. […] Cross-linking of azido-GD3 was detected for Siglec-7v(104SFY) and Siglec-7v(127SFY). […]

T1 sequence (Q9Y286 with tags, fused parts or gaps C41S): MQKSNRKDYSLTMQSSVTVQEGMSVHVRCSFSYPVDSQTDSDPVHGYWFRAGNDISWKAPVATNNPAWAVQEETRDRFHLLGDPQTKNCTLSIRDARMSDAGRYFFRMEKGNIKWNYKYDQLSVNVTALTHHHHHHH

Compound: O=C(c1ccc(OCc2ccccc2[N+](=O)[O-])c(C(F)F)c1)N1CCN(C(=O)c2ccc(OCc3ccccc3[N+](=O)[O-])c(C(F)F)c2)CC1 [HoQM]
cross-linking of Siglec-7v with azido-GD3 (biotin band slightly above Siglec-7v) (Siglec-7v with azido-GD3): not

cross-linking of Siglec-7v with azido-GD3 (biotin band slightly above Siglec-7v) (Siglec-7v with azido-GD3): not
Compound: O=C(ON1C(=O)CCC1=O)c1ccc(OCc2ccccc2[N+](=O)[O-])c(C(F)F)c1 [NHQM]

Compound: O=C(CCCCCCCNC(=O)c1ccc(S(=O)(=O)F)cc1)ON1C(=O)CC(S(=O)(=O)[O-])C1=O.[Na+] (stereo not shown) [NHSF—C7, sodium 1-((8-(4-(fluorosulfonyl)benzamido)octanoyl)oxy)-2,5-dioxopyrrolidine-3-sulfonate]
cross-linking efficiency on further increase of the linker length (Siglec-7v with azido-GD3; Siglec-7v with azido-GD3): lowered

Compound: CC(=O)N[C@H]1[C@H]([C@H](O)[C@H](O)CO)O[C@@](O[C@H]2[C@@H](O)[C@@H](CO)O[C@@H](O[C@H]3[C@H](O)[C@@H](O)C(O)O[C@@H]3CO)[C@@H]2O)(C(=O)O)C[C@@H]1O (stereo partly shown) [3′-sialyllactose]
effect of added ligand on crosslinking of siglec-7v(127SFY) with azido-GD3 [1]: did not reduce

Compound: O=C(Cc1ccc(OS(=O)(=O)F)cc1)ON1C(=O)CCC1=O [NHFS, 2,5-dioxopyrrolidin-1-yl 2-(4-((fluorosulfonyl)oxy)-phenyl)acetate]
cross-linking of Siglec-7v with azido-GD3 (biotin band slightly above Siglec-7v) (Siglec-7v with azido-GD3): not

Compound: O=C(CCNC(=O)c1ccc(S(=O)(=O)F)cc1)ON1C(=O)CC(S(=O)(=O)[O-])C1=O.[Na+] (stereo not shown) [NHSF—C2, Sodium 1-((3-(4-(fluorosulfonyl)benzamido)propanoyl)oxy)-2,5-dioxopyrrolidine-3-sulfonate]
cross-linking band intensity in comparison with NHSF (Siglec-7v with azido-GD3; Siglec-7v with azido-GD3): 1.5 fold

Compound: O=C(CCCNC(=O)c1ccc(S(=O)(=O)F)cc1)ON1C(=O)CC(S(=O)(=O)[O-])C1=O.[Na+] (stereo not shown) [NHSF—C3, Sodium 1-((4-(4-(fluorosulfonyl)benzamido)butanoyl)oxy)-2,5-dioxopyrrolidine-3-sulfonate]
cross-linking efficiency on further increase of the linker length (Siglec-7v with azido-GD3; Siglec-7v with azido-GD3): lowered
